Assay results from publication PMC9045377, “CpxA Phosphatase Inhibitor Activates CpxRA and Is a Potential Treatment for Uropathogenic Escherichia coli in a Murine Model of Infection” (Microbiology Spectrum, 2022).
Values joined by “and” are separate entries in the source; they are usually repeats but may differ in a detail not shown here. Equal entries are not always repeated.

How the values were obtained:
CpxRA [1] = test: E. coli CpxR β-galactosidase reporter assay for CpxRA activation (reporter strain PAD282); format: cell-based, Escherichia coli
Method: E. coli strain CFT073 and its derivative CFT073ΔcpxA::cat were described previously and maintained on Luria broth (LB) plates at 37°C ([30]). The E. coli PcpxP′-lacZ reporter strain, PAD282, was the gift of Thomas Silhavy (Princeton University, Princeton, NJ, USA) and was maintained on TB plates at 37°C ([31]). HepG2 hepatocellular carcinoma cells were the gift of Andy Yu (Indiana University, Indianapolis, IN) and were grown in RPMI […] medium (Gibco) containing 10% fetal calf serum (HyClone) and 1 mM sodium pyruvate (Sigma) at 37°C with 5% CO2 as described ([31]).
Compounds 1 and 6 were purchased from ChemDiv and Aurum Pharmatech, respectively ([31], [32]). Compound 26 was synthesized and purified by the Duerfeldt laboratory as described ([32]). All compounds were dissolved in DMSO prior to use in this assay. The EC50 values for each compound were determined by measuring the β-galactosidase activity of the reporter strain PAD282 as previously reported ([31]). Briefly, PAD282 was cultured overnight in TB medium with 0.4% glucose and diluted into a 384-well plate, which contained the compounds in concentrations ranging from 0 to 160 μM, and incubated for 5 h at 37°C with no shaking. The All-in-One β-galactosidase reagent (Pierce) was added and the OD420, OD550, and OD600 of the wells were measured by a SpectraMax 384 plate reader. EC50 values were determined from 3 separate experiments done in triplicate using GraphPad Prism software using a nonlinear fit model. In some experiments, EC50 values were determined in the presence and absence of 10% human AB serum (Sigma).

[2] = Toxicity / clinical signs in mice; format: in vivo, female CBA/J mice
Method: We tested our initial hit, compound 1 ([31]) (Fig. 1), for toxicity in a murine model using criteria described in Materials and Methods. […] To test compound 1 for efficacy, female CBA/J mice were transurethrally inoculated with ∼1 × 10^8 CFU of UPEC strain CFT073; 12 h later, mice were treated with 100 mg/kg compound 1 (n = 10) or the vehicle control (n = 5) s.c. twice a day for 3 days and then sacrificed 4 h after the last dose. No effect was seen on the recovery of E. coli CFT073 in the urine, bladder, or kidneys (see Fig. S1 in the supplemental material). As compound 1 lacked efficacy, we aimed to improve the scaffold to enhance potency and eliminate the nitro group liability ([32]).
We developed a high-performance liquid chromatography-tandem mass spectrometry (HPLC-MS/MS) assay to measure compound 6 with a lower limit of quantification of 1 ng/mL. Single-dose PK parameters of compound 6 were determined in female CBA/J mice (n = 15) given 100 mg/kg s.c. dissolved in the vehicle. Blood was obtained from groups of 3 mice 1, 2, 4, 8, and 24 h postinjection.
Animal experiments were conducted according to the guidelines of the Indiana University School of Medicine Institutional Animal Care and Use Committee by the IU Simon Comprehensive Cancer Center In Vivo Therapeutics Core, a component of the Indiana Clinical Translational Science Institute. For the pilot toxicity study with compound 1, 4- to 6-week-old CBA/J female mice were obtained from Jackson Laboratory (Bar Harbor, ME) and were treated with compound 1 or the vehicle control twice a day for 3 days as described in the results. […] Toxicity was determined by the following criteria: deteriorating health-hunched posture, lack of grooming, failure to thrive, failure to eat and drink for >48 h, rapid loss of 15 to 20% body weight, inactivity with hunched posture, loss of righting reflex and inability to maintain upright posture, loss of general body condition with spine becoming visible, and dehiscence of wounds and/or evidence of infection at injection sites not responsive to veterinary treatment.

CpxRA [3] = test system: CpxRA; set-up: method as in PMID 31104993; conditions: β-galactosidase reporter assay in E. coli; read-out: mean 50% effective concentration (EC50), CpxRA activation; cited from earlier work
[4] = infected mice, 100 mg/kg s.c. at 12, 36, 60 h

| SMILES | effect of 10% human AB serum on activity in the reporter assay (CpxRA [1]; 10% human AB serum present vs absent) | fold lower EC50 (more potent) than compound 1 (CpxRA [1]; reporter assay) | concentration for peak activation of CpxR (CpxRA [1]; reporter assay, Fig. S2) [µM] | clinical signs during efficacy trial [2, 4] | clinical signs of toxicity at 24 h ([2]; single dose 100 mg/kg s.c.) | tremors ([2]; single dose 100 mg/kg s.c., n = 15, one mouse from 30 min (severe at 2 h), six mice after 1 h) | clinical signs, all treated mice ([2]; single dose 100 mg/kg s.c., from 10 min after injection to the 8-h time point) | EC50 (CpxRA [3]) [µM] | fold lower EC50 (more potent) than compound 6 (CpxRA [1]; reporter assay) [fold] | signs of toxicity during efficacy trial [2, 4] |
| --- | --- | --- | --- | --- | --- | --- | --- | --- | --- | --- |
| NC1CCCc2c1[nH]c1ccc(F)cc21 (centres unmarked) [compound 6] | not affected | 3.2 fold and 3 fold | 10 | None of the compound 6-treated animals exhibited decreased activity, tremors, or squinting | No mice showed clinical signs of toxicity | slight tremors | slightly decreased activity and squinting | 7.7 | – | – |
| N[C@@H]1CCCc2c1[nH]c1cc(F)c(F)cc21 [compound 26] | – | – | – | – | – | – | – | 1.1 | ~7 | None of the compound 26-treated animals exhibited signs of toxicity |
